Patent US8168596B2, “Use of cycloartane compounds for treating arthritis” (NuLiv Holding Inc., priority 2008, dated 2012)

Columns and labels:
[1] = test system: MMP-1; experiment: Zymography of MMP-1 from pre-treated SW1353 cells; format: cell-based, human; conditions: PMA-pre-treated SW1353; 0.1 μM, 24 h
Description: At the beginning of the experiment, the cells were pre-treated with 100 ng/mL PMA or 10 ng/mL IL-1β for 24 hours. The cells were then treated with 0.1 μM Dexamethasone, various astragaloside compounds (0.1 μM) or extracts of Astragalus membranaceous (1 μg/mL) at indicated dosages for another 24 hours. For control sample, 0.1% DMSO was used as a negative control for these experiments. The conditioned culture mediums were then centrifuged, 2-fold concentrated and collected for assay of collagens or MMPs secreted into the culture medium.
The proteolytic activities of MMPs from SW1353 cells were measured essentially as described previously (Circ Res, 1999; 85:906-911). The cells were lysed in lysis buffer (1% Triton X-100, 50 mM Tris-Cl, pH 7.4, 180 mM NaCl, 1 mM EDTA). The samples were measured for their protein concentration using the bicinchoninic acid (BCA) protein assay kit as described. Samples of concentrated conditioned medium and cell lysates were mixed with non-reducing electrophoresis loading buffer and subjected to electrophoresis under non-reducing conditions. The electrophoresis was carried out on a 10% SDS-PAGE co-polymerized with 2 mg/mL gelatin or casein (Sigma, St. Louis, Mo. USA). For zymographic analysis of pro-MMP-2 and activated MMP-2, the total 20 μg of culture medium were used for electrophoresis. Following electrophoresis, renaturation of the proteins was achieved by incubating the gels twice in 25 g/L Triton X-100 at room temperature for 10 min. Subsequently the gels were incubated in 50 mM Tris-HCl, pH 7.5 containing 0.2 M NaCl, 0.02% Brij35 and 10 mM CaCl2 at 37° C. for 18 hours. After the gels were stained with Coomassie Brilliant Blue R-250 and destained, zones of proteolytic activities became visible as transparent bands in the stained gel. In order to obtain higher sensitivity, the gels were further destained in a solution of 1% Triton X-100 (1 to 2 hours). This procedure increased the signal-to-noise ratio, allowing the visualization of faint gelatinase bands at 92 kDa, 125 kDa and greater than 200 kDa. Zymograms were read using a Molecular Dynamics (Sunnyvale, Calif., USA) computing laser densitometer with Image Quant software.

[2] = test system: MMP1; experiment: Western blotting of MMP1 protein expression induced by IL-1β, PMA or TNF-α in SW1353 cells (Example 3); format: cell-based, human; conditions: AS4 0.01, 0.1 or 1 μM; PMA 100 ng/mL, IL-1β 10 ng/mL, TNF-α 10 ng/mL, 24 h
Description: Western blotting analysis was carried out based on the following procedure. Cells were washed and lysed in 0.2 mL of lysis buffer (1% NP-40, 50 mM Tris-HCl, pH 7.4, 180 mM NaCl, 1 mM EDTA, 1 mM PMSF, 1 mM NaF, 10 mM Na3VO4) for 30 min at 4° C. After centrifugation at 17500 g for 15 min, the supernatants of cell lysate were collected. Protein concentrations of the samples were measured using the bicinchoninic acid (BCA) protein assay kit according to the manufacturer's protocol (Pierce, Rockford, Ill., USA). Equal amounts of protein samples of concentrated conditioned medium (100 μg) or cell lysate supernatants (50 μg) were mixed with an appropriate volume of 4×SDS sampling buffer and separated on a 8% SDS-PAGE gel. The protein bands separated on the SDS-PAGE gel were blotted onto a polyvinylidene fluoride (PVDF) membrane. The blotted PVDF membrane was washed twice and blocked in freshly prepared Tris-buffered saline (TBS) containing 0.1% Tween-20 and 7% skim milk (TBST) for 2 hours at room temperature. The PVDF membrane was then incubated with a primary antibody against MMP1 protein (Santa Cruz Biotechnology, Santa Cruz, Calif.) for 18 hours at 4° C. Horseradish peroxidase-conjugated anti-goat antibody was used as the secondary antibody. Signals were visualized by an enhanced chemiluminescence kit (Clonetech, Palo Alto, Calif., USA) followed by exposure to X-ray films. […]

CC(C)(O)[C@@H]1CC[C@](C)([C@H]2[C@@H](O)C[C@@]3(C)[C@@H]4C[C@H](O[C@@H]5O[C@H](CO)[C@@H](O)[C@H](O)[C@H]5O)[C@H]5C(C)(C)[C@@H](O[C@@H]6OC[C@@H](O)[C@H](O)[C@H]6O)CC[C@@]56C[C@@]46CC[C@]23C)O1 [AS4, Astragaloside IV]
MMP-1, Zymography, relative to Ctrl 1.00 [1]: 0.68 | level of expression of MMP1 protein with different inducers [2]: inhibited
